Tests used:
[1] = system: luciferase (luc) expressing TRAMP-C1 cells; experiment: TRAMP-C1 cell survival after single dose irradiation (bioluminescence, 96-well); type: cell-based, mouse; conditions: for survival (% of bioluminescence before irradiation): single 8 Gy dose, drugs from 4 days after irradiation for 7 days, cinaciguat, p62 inducer, enzalutamide 1 μM, 8-bromo-cGMP 100 μM, DETA-NONOate 100 M (so in the source); for effect on irradiation-induced cell death: single dose 8 Gy irradiation, TRAMP-C1 cells, preliminary studies
Method: FIG. 4. The effect of single-dose and fractionated irradiation on TRAMP-C1 cell survival. A) Cells were plated at 5,000 cells/well in 96-well plates and subjected to single dose irradiation of 0 or 8 Gy. Four days following irradiation cells were treated with cinaciguat (1 μM), p62 inducer (1 μM), enzalutamide (1 μM), DETA-NONOate ([…]), 8-bromo-cGMP (100 μM) or vehicle (0.1% DMSO) for 1 week. Bioluminescence was measured before and after irradiation, and following drug treatment. […] B) Determination of 6 Gy as the optimal 5-day fractionated radiation dose based on cell survival.
Effect of drugs targeting NO·-cGMP pathway, mitophagy and AR signaling on TRAMP-C1 survival after single dose irradiation and determination of optimal fractionated irradiation protocol. To assess whether promoting NO·-cGMP signaling, induction of mitophagy or AR inhibition would enhance the effect of radiation treatment, the effect of these different drugs on cultured luciferase (luc) expressing TRAMP-C1 cells was examined in a 96-well plate format. Bioluminescence was assessed before irradiation after which the cells were exposed to a single 8 Gy radiation dose. Four days after irradiation cells were treated with the different drugs for a further 7 days. […] To determine the optimal fractionated irradiation dosing protocol, fractionated irradiation protocols were examined in cultured cells over a 5-day period. […] Therefore, 6 Gy per day for 5 days can be used as a dosing protocol.
Cell culture. Luciferase expressing TRAMP-C1 cells may be maintained in DMEM supplemented with 10% FBS, 1% PenStrep, 5 μg/ml insulin and 10 nM dehydroisoandrosterone and used at 10-15 passages. For experiments in Examples 1-3 cells may be plated at 5,000 cells/well in 96-well plates.
Bioluminescence in vitro and in vivo imaging. Cells may be treated with 150 μM luciferin D and immediately placed in Tecan SPECTRA Fluor Plus plate reader for bioluminescence measurement. Readings may be averaged for each group of cells (n≥ 8) and background (empty well readings) subtracted. Mice may be anesthetized with avertin (300 mg/kg, IP), depilated and injected with 150 mg/kg luciferin D, IP. They may be […] in a BioRad ChemiDoc MP imaging system in the supine position. Bioluminescence may be imaged for 600 sec using the Chemi Hi sensitivity protocol, intensity expressed colorimetrically, superimposed over images of the mice.

[2] = system: orthotopic TRAMP-C1 tumors; experiment: Orthotopic TRAMP-C1 tumors after fractionated irradiation, prostate tissue weight; type: in vivo, C57BI/6 mice; conditions: 2 Gy fractions x 5 days; after one week osmotic pump 1 mg/kg/day for 14 days; vs irradiation alone
Method: FIG. 5. TRAMP-C1 orthotopic tumors and the effects of irradiation. A) TRAMP-C1 cells (10^7 cells/100 μl) were injected bilaterally into the ventrolateral prostatic lobes to create the orthotopic tumor mouse model. […] B) TRAMP-C1 tumor in a non-irradiated mouse 5 weeks after cell injection. C) Tumor following fractionated irradiation (2 Gy×5 days, starting 4 weeks post injection). D) Prostate wet weight in control, non-irradiated and irradiated tumor bearing animals.
FIG. 6. Bioluminescence imaging of prostate tumors and prostate size assessment following treatments. A) Image of colorimetrically expressed bioluminescence intensity superimposed over the mouse image. B) Prostates were excised from non-injected control, injected non-irradiated and injected irradiated (2 Gy×5 days) mice with or without treatments (P62 inducer or cinaciguat, 1 mg/kg/day for 2 weeks by ALZET pumps starting 1 week post irradiation). C) Timeline of tumor growth based on preliminary data.
Development of orthotopic TRAMP-C1 tumors in C57BI/6 mice and the effect of fractionated irradiation. […] At the conclusion of the treatment, tumor weights were evaluated. Without any intervention (drug or irradiation), there was a significant increase in tumor mass evaluated as total prostate tissue weight (FIG. 6 (B)).

[3] = system: mouse bladder with chronic radiation cystitis; experiment: Chronic radiation cystitis in mice: cystometry (CMG) and bladder collagen staining; type: in vivo
From the text: FIG. 12 Effects of cinaciguat on a mouse bladder with chronic radiation cystitis. A) Cystometry (CMG), non-irradiated mouse. B) CMG, 9 weeks following bladder irradiation (10 Gy). C) CMG, irradiation+daily gavage for 2 weeks with cinaciguat. D) Active and (E-F) passive length-tensions from irradiated+vehicle (red) vs. irradiated+cinaciguat (blue) bladder strips. G-I) Bladder cross-sections stained with Verhoeff Van Gieson solution; collagen is stained pink. J) Collagen, % area of the bladder wall, N=4. K) bladder weight in mg, control vs. irradiated (irr)>9 wks; N=5 ea.
Furthermore, irradiation decreases bladder weight by approximately 30% that could be attributed to muscle atrophy (FIG. 12 (K)).

[4] = given via i.v. drip; cited from earlier work
[5] = system: sGCα1, Bcl-2/BAX and NF-κβ; experiment: Immunolocalization of sGCα1, Bcl-2/BAX and NF-κβ in orthotopic TRAMP-C1 tumor sections; type: in vivo, mouse; conditions: fractionated irradiation plus 1 mg/kg/day for two weeks
Method: FIGS. 7A and 7B. Alterations in the sGCα1, Bcl-2/BAX ratio and NF-κβ nuclear localization in prostate tumors from non-irradiated mice, and irradiated mice treated with cinaciguat or p62 inducer based on immunolabeling intensity. A)-C) sGC α1 immunolabeling in A) non-irradiated orthotopic TRAMP-C1 tumors. B) orthotopic tumor from mouse receiving fractionated irradiation followed by two weeks of cinaciguat (1 mg/kg/day) treatment. C) orthotopic tumor from mouse receiving fractionated irradiation followed by two weeks of p62 mitophagy inducer (1 mg/kg/day) treatment. D)-F) Immunolabeling for Bcl-2 of D) non-irradiated orthotopic TRAMP-C1 tumor. E) orthotopic tumor from mouse receiving fractionated irradiation and cinaciguat treatment. F) orthotopic tumor from mouse receiving fractionated irradiation and p62 mitophagy inducer treatment. G-I) Immunolabeling for NF-κβ of G) non-irradiated orthotopic TRAMP-C1 tumor. H) orthotopic tumor from mouse receiving fractionated irradiation and cinaciguat treatment. I) orthotopic tumor of mouse receiving fractionated irradiation and p62 mitophagy inducer treatment. J) Bar chart for ratio of sGCα1 positive area to total cell area. K) Bar chart of Bcl-2 positive staining versus BAX positive staining in sequential sections from each group. […] Green fluorescence—immunolabeling, Blue—DAPI, nuclei. […]

Bcl-2/BAX ratio = conditions: aged mice, reversal of benign prostatic hyperplasia; previously demonstrated; cited from earlier work
[6] = system: bladder of CyB5R3 smooth muscle conditional knockout mice; conditions: acute intraperitoneal injection; cited from earlier work
[7] = Blood pressure and heart rate under cinaciguat treatment; type: in vivo, mice

With `Nc1nc2c(nc(Br)n2[C@@H]2O[C@@H]3COP(=O)(O)O[C@H]3[C@H]2O)c(=O)[nH]1` [8-bromo-cGMP] the “survival (% of bioluminescence before irradiation)” value [1] was 65±7% and the “effect on irradiation-induced cell death” value [1] was “did not enhance irradiation-induced cell death”.
For `NCCN(CCN)/[N+]([O-])=N/O` [DETA-NoNoate], the “survival (% of bioluminescence before irradiation)” value [1] was 62±13%, the “effect on irradiation-induced cell death” value ([1]; listed as DETA NoNoate) was “not” and the “effect on irradiation-induced cell death” value ([1]; listed as DETA-NONOate) was “did not enhance irradiation-induced cell death”.
For `O=C(O)CCCCN(CCc1ccccc1OCc1ccc(CCc2ccccc2)cc1)Cc1ccc(C(=O)O)cc1` [cinaciguat, 4-({(4-carboxybutyl)[2-(2-{[4-(2-phenylethyl)phenyl]methoxy}phenyl)ethyl]amino}methyl) benzoic acid], the “tumor mass evaluated as total prostate tissue weight” value [2] was “marked decrease compared to irradiation alone”, the “bladder wall structure (collagen staining)” value ([3]; chronically irradiated mice, Verhoeff Van Gieson staining) was “bladder wall structure similar to non-irradiated controls” and the CMG profile ([3]; daily gavage 10 mg/kg/day starting 7 weeks post irradiation (10 Gy), 2 weeks) was “normalized the CMG profile”. The “collagen content of bladder wall” value ([3]; doubling of collagen 9 weeks post irradiation) was “reversed”, the “blood pressure effect (hypotension)” value [4] was “induced hypotension” and the “sGCα1, Bcl-2/BAX and NF-κβ immunolabeling in tumor” value [5] was “all three markers were reduced”. For the same compound, the Bcl-2/BAX ratio (Bcl-2/BAX ratio) was “decreasing the Bcl-2/BAX ratio”, the “intercontractile interval (ICI)” value [6] was “increased ICI” and the non-voiding contractions [6] was “eliminated non-voiding contractions”. For the same compound, the “effect on blood pressure” value ([7]; infused post irradiation 0.1-1 mg/kg/day for 28 days via osmotic pumps, preliminary data) was “without adversely affecting blood pressure”, the “effects on blood pressure and heart rate” value ([7]; once-a-day oral 10 mg/kg) was “only transient effects on blood pressure and heart rate” and the “survival (% of bioluminescence before irradiation)” value [1] was 31±13%. For the same compound, the “effect on irradiation-induced cell death” value [1] was “potentiated” and the “effect on irradiation-induced cell death” value ([1]; listed as Cinaciguat) was “most effective in promoting irradiation-induced tumor cell death”.
In the case of `CNC(=O)c1ccc(N2C(=S)N(c3ccc(C#N)c(C(F)(F)F)c3)C(=O)C2(C)C)cc1F` [enzalutamide], the “survival (% of bioluminescence before irradiation)” value [1] is reported as 80±11% and the “effect on irradiation-induced cell death” value [1] is reported as “protected the cells and not”.
